Laboratory results published in US20100152129A1 (priority 2008, published 2010).
Several values for one entry are separate records, joined by “and”; a condition that tells them apart may be missing. Identical values can stand only once.

Assays:
[1] = preclinical studies; cited from earlier work
[2] = tested on: Panc-1 cells; assay: Protein expression using high content cell imaging system, and efficacy score; format: cell-based; details: for Efficacy score: cumulative over proteins of Table 7
Procedure: The data was generated using cell imaging system, where, cells after drug exposure were treated with protein specific antibody, followed by detection markers for the antibody. The images were generated and protein levels quantitated as an indication of drug effect.
Methodology: Panc-1 cells were seeded at a density of 5000 cells per well in 96 well plates and allowed recovery for 24 hrs in 5% CO2 incubator. After recovery, cells were challenged with Gemcitabine (IC30) for 24 hrs. After 24 hrs Gemcitabine was removed and fresh medium was added. […] The combination efficacy was identified against single treatments. At the end of the experiment Panc-1 cells were fixed and permeabilized. All the primary antibodies were added at a concentration according to manufacture protocol. After one hour incubation the cells were washed three times and labeled with secondary antibodies tagged with Dye Light 548 and nucleus was stained with Hoechest3342. After antibody labeling, cells were stained with the Cellomics whole Cell Stain Green to identify the cell's cytoplasmic area. Then all the plates were scanned in Cellomics ArrayScan® VTI HCS Reader. The results were analyzed using software that is designed for measuring the read from the imaging system.
Expression of proteins listed in Table 7 were determined in terms of fluorescence unit obtained by using target activation algorithm from High content imaging system from Cellomics. • Protein expression data expressed as fluorescent units from Table 7 were used to generate expression ratio by comparing drug treatments (individual or combination) against the normal control with no drug treatment. The ratio of expression which is considered as dys-regulation (1.5 fold above or below the range for up-regulation and down regulation respectively) is subtracted from the normal range (±1.5) and is used to measure the efficacy score.
Expression ratio=protein expression during drug treatment/protein expression under normal control.
Efficacy score =Cumulative score (expression ratio−±1.50) for all proteins.

[3] = tested on: xenograft models of colon cancer (HCT-116, SW-480) and non-small cell lung cancer (H-460); details: oral administration; SCID mice; cited from earlier work
[4] = tested on: Panc-1 cells; assay: CCK-8 based cytotoxicity assay; format: cell-based
Excerpt: CCK-8 based cytotoxicity assay is a sensitive nonradioactive colorimetric assay for determining the number of viable cells in cell proliferation and cytotoxicity assays. WST-8 (2-(2-methoxy-4-nitrophenyl)-3-(4-nitrophenyl)-5-(2,4-disulfophenyl)-2H tetrazolium, monosodium salt) is bioreduced by cellular dehydrogenases to an orange formazan product that is soluble in tissue culture medium. The amount of formazan produced is directly proportional to the number of living cells.
Test System: The Panc-1 cell line was procured from ATCC (American Tissue type Culture Collection USA, catalog number: CRL-1469) and the frozen vial was stored in liquid nitrogen container.
Panc-1 cells were seeded at a density of 3000 cells/well in a 96 well plate and allowed to recover for 24 hrs in a CO2 incubator at 37° C. […] The final DMSO concentration was 0.5% in wells. Plates were incubated for 24, 48, and 72 hrs. At the end of incubation CCK-8 was added and kept at 37° C. for 3 hrs following which absorbance was measured at 450 nm.

[5] = 6 hours post treatment, control 3
[6] = 36 hours post treatment, control 98

Q: With `CN1CC[C@@H](c2c(O)cc(O)c3c(=O)cc(-c4ccc(C(F)(F)F)cc4Cl)oc23)[C@@H]1CO.Cl` (relative stereo) [P1446A] as the compound, how does the oral bioavailability [1] read?
A: good oral bioavailability

Q: What about the PTN protein expression ([2]; 6 hours post treatment, control 1) of the same compound?
A: 3 fluorescence units

Q: What about the GADD45-α protein expression [2, 5] of the same compound?
A: 3 fluorescence units

Q: What about the ID1 protein expression [2, 5] of the same compound?
A: 38 fluorescence units

Q: And the P27 protein expression ([2]; 6 hours post treatment, control 6)?
A: 4 fluorescence units

Q: And the CDC25B protein expression ([2]; 6 hours post treatment, control 7)?
A: 4 fluorescence units

Q: What about the CDKN2A protein expression ([2]; 6 hours post treatment, control 8) of the same compound?
A: 49 fluorescence units

Q: What about the CCND1 protein expression ([2]; 6 hours post treatment, control 74) of the same compound?
A: 87 fluorescence units

Q: What about the GAPDH protein expression ([2]; 6 hours post treatment, control 80) of the same compound?
A: 78 fluorescence units

Q: And the CASP3 protein expression ([2]; 6 hours post treatment, control 147)?
A: 102 fluorescence units

Q: What about the MMP-1 protein expression ([2]; 6 hours post treatment, control 501) of the same compound?
A: 235 fluorescence units

Q: And the COX15 protein expression ([2]; 6 hours post treatment, control 627)?
A: 628 fluorescence units

Q: What about the COX2 protein expression ([2]; 6 hours post treatment, control 635) of the same compound?
A: 457 fluorescence units

Q: And the BAX protein expression ([2]; 6 hours post treatment, control 819)?
A: 421 fluorescence units

Q: And the VEGF protein expression ([2]; 6 hours post treatment, control 829)?
A: 235 fluorescence units

Q: What about the BCL2 protein expression ([2]; 6 hours post treatment, control 830) of the same compound?
A: 587 fluorescence units

Q: And the pRB protein expression ([2]; 6 hours post treatment, control 1240)?
A: 1489 fluorescence units

Q: What about the Efficacy score ([2]; 6 hours) of the same compound?
A: 2.1

Q: What about the GADD45-α protein expression ([2]; 16 hours post treatment, control 13) of the same compound?
A: 46 fluorescence units

Q: What about the CDC25B protein expression ([2]; 16 hours post treatment, control 54) of the same compound?
A: 45 fluorescence units

Q: And the CDKN2A protein expression ([2]; 16 hours post treatment, control 64)?
A: 55 fluorescence units

Q: And the P27 protein expression ([2]; 16 hours post treatment, control 67)?
A: 37 fluorescence units

Q: And the PTN protein expression ([2]; 16 hours post treatment, control 76)?
A: 34 fluorescence units

Q: What about the ID1 protein expression ([2]; 16 hours post treatment, control 77) of the same compound?
A: 67 fluorescence units

Q: What about the CCND1 protein expression ([2]; 16 hours post treatment, control 90) of the same compound?
A: 85 fluorescence units

Q: What about the GAPDH protein expression ([2]; 16 hours post treatment, control 100) of the same compound?
A: 100 fluorescence units

Q: And the CASP3 protein expression ([2]; 16 hours post treatment, control 202)?
A: 1157 fluorescence units

Q: And the VEGF protein expression ([2]; 16 hours post treatment, control 579)?
A: 420 fluorescence units

Q: What about the BCL2 protein expression ([2]; 16 hours post treatment, control 644) of the same compound?
A: 546 fluorescence units

Q: And the BAX protein expression ([2]; 16 hours post treatment, control 711)?
A: 688 fluorescence units

Q: And the COX15 protein expression ([2]; 16 hours post treatment, control 718)?
A: 896 fluorescence units

Q: What about the MMP-1 protein expression ([2]; 16 hours post treatment, control 929) of the same compound?
A: 420 fluorescence units

Q: And the COX2 protein expression ([2]; 16 hours post treatment, control 1109)?
A: 1063 fluorescence units

Q: What about the pRB protein expression ([2]; 16 hours post treatment, control 2583) of the same compound?
A: 1721 fluorescence units

Q: What about the Efficacy score ([2]; 16 hours) of the same compound?
A: 10.3

Q: What about the GADD45-α protein expression ([2]; 36 hours post treatment, control 19) of the same compound?
A: 43 fluorescence units

Q: What about the COX2 protein expression ([2]; 36 hours post treatment, control 86) of the same compound?
A: 43 fluorescence units

Q: What about the P27 protein expression ([2]; 36 hours post treatment, control 96) of the same compound?
A: 65 fluorescence units

Q: And the CCND1 protein expression [2, 6]?
A: 55 fluorescence units

Q: And the CDC25B protein expression [2, 6]?
A: 70 fluorescence units

Q: What about the GAPDH protein expression [2, 6] of the same compound?
A: 63 fluorescence units

Q: And the ID1 protein expression [2, 6]?
A: 83 fluorescence units

Q: What about the PTN protein expression ([2]; 36 hours post treatment, control 100) of the same compound?
A: 99 fluorescence units

Q: What about the CASP3 protein expression ([2]; 36 hours post treatment, control 265) of the same compound?
A: 1220 fluorescence units

Q: What about the BAX protein expression ([2]; 36 hours post treatment, control 715) of the same compound?
A: 1670 fluorescence units

Q: And the COX15 protein expression ([2]; 36 hours post treatment, control 722)?
A: 1878 fluorescence units

Q: And the VEGF protein expression ([2]; 36 hours post treatment, control 1093)?
A: 1195 fluorescence units

Q: What about the MMP-1 protein expression ([2]; 36 hours post treatment, control 1316) of the same compound?
A: 1195 fluorescence units

Q: What about the BCL2 protein expression ([2]; 36 hours post treatment, control 1410) of the same compound?
A: 1330 fluorescence units

Q: And the CDKN2A protein expression ([2]; 36 hours post treatment, control 1441)?
A: 1395 fluorescence units

Q: And the pRB protein expression ([2]; 36 hours post treatment, control 2840)?
A: 1978 fluorescence units

Q: And the Efficacy score ([2]; 36 hours)?
A: 7.6

Q: What about the tumor growth inhibition [3] of the same compound?
A: significant tumor growth inhibition

Q: And the “% Cytotoxicity” value ([4]; P1446A 30 nM, 24 hrs)?
A: 29.825%

Q: What about the “% Cytotoxicity” value ([4]; P1446A 30 nM, 72 hrs) of the same compound?
A: 23.33%

Q: What about the “% Cytotoxicity” value ([4]; P1446A 100 nM, 24 hrs) of the same compound?
A: 26.525%

Q: What about the “% Cytotoxicity” value ([4]; P1446A 100 nM, 48 hrs) of the same compound?
A: 24.596%

Q: What about the “% Cytotoxicity” value ([4]; P1446A 300 nM, 24 hrs) of the same compound?
A: 34.36%

Q: What about the “% Cytotoxicity” value ([4]; P1446A 300 nM, 48 hrs) of the same compound?
A: 28.636%

Q: And the “% Cytotoxicity” value ([4]; P1446A 300 nM, 72 hrs, hydrochloride)?
A: 31.05% and 31.075%
